Results from article PMC11188874, “HDAC6 Inhibition Releases HR23B to Activate Proteasomes, Expand the Tumor Immunopeptidome and Amplify T-cell Antimyeloma Activity” (Cancer Research Communications, 2024).

Assays:
[1] = test system: proteasome ChT-like activity in RPMI-8226 cells; assay: Cell-based high-throughput screen of proteasome ChT-like activity (LLVY-R110); set-up: species or system human; settings: 3 µmol/L, 21 hours, then LLVY-R110 18 hours
RPMI8226 cells [2] = assay: Aggresome formation (Proteostat kit, flow cytometry); assay type: cell-based, human; settings: 16 h
RPMI8226 cells [3] = assay: Autophagosome formation (Cyto-ID kit, flow cytometry); assay type: cell-based, human; settings: 16 h
E.G7-Ova cells = assay: Quantitation of […]–MHC-I complex by flow cytometry; assay type: cell-based, mouse
RPMI-8226 cells = assay: Myeloma MHC-I immunopeptidome analysis by MS; assay type: cell-based, human; settings: BTZ, 18 hours
SIRT2 = target: T1, SIRT2 (Homo sapiens, UniProt Q8IXJ6); assay: In vitro biochemical activity assay, SIRT2; settings: 10-dose, 3-fold serial dilution; fluorogenic peptide p53 residues 379-382 and NAD
T1 construct: purchased Reaction Biology (Malvern, PA)
T1 sequence (Q8IXJ6 1-389): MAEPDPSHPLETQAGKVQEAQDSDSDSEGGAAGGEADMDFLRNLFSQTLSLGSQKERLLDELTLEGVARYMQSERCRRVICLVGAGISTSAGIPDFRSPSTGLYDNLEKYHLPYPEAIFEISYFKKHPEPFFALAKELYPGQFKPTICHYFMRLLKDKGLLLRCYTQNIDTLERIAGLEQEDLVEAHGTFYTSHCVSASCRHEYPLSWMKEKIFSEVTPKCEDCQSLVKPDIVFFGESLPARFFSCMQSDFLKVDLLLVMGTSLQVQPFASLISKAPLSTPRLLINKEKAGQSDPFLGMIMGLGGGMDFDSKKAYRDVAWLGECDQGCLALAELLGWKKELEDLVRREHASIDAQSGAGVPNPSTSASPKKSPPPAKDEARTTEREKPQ

Row | IC50 (SIRT2) [µM] | Compound | Fold-Decrease of proteasome ChT-like activity in the HTS [1] [fold] | formation of aggresomes (RPMI8226 cells [2]) | formation of autophagosomes (RPMI8226 cells [3]) | SIINFEKL–MHC-I complex presentation (in words) (E.G7-Ova cells) | global peak intensity of peptides (in words) (RPMI-8226 cells) | number of peptides decreased by at least 20-fold (RPMI-8226 cells) | number of peptides with 2-fold or greater decrease (RPMI-8226 cells)
1 | – | CC(C)C[C@H](NC(=O)[C@H](Cc1ccccc1)NC(=O)c1cnccn1)B(O)O [Bortezomib] | 4 | increased | increased | reduced | slightly decreased | seven | 1,707 peptides
2 | 24.3 | Cc1ccc(C(=O)Nc2ccc(S(=O)(=O)O)c3cc(S(=O)(=O)O)cc(S(=O)(=O)O)c23)cc1NC(=O)c1cccc(NC(=O)Nc2cccc(C(=O)Nc3cc(C(=O)Nc4ccc(S(=O)(=O)O)c5cc(S(=O)(=O)O)cc(S(=O)(=O)O)c45)ccc3C)c2)c1 [Suramin] | – | – | – | – | – | – | –
